The values below are quoted from earlier work in US20160022604A1, “DIRECTLY COMPRESSED OSPEMIFENE COMPOSITIONS” (CADILA HEALTHCARE LIMITED, priority 2014, published 2016).

For data set [1] the following is noted: classical hormonal tests.
For data set [2] the following is noted: experimental models and human volunteers.

Turning to `OCCOc1ccc(/C(=C(/CCCl)c2ccccc2)c2ccccc2)cc1` [Ospemifene, 2-[4-(4-chloro-1,2-diphenylbut-1-enyl)phenoxy]ethanol], the “estrogenic and antiestrogenic effects” value in data set [1] is “relatively weak”. Moreover, the “total and LDL cholesterol levels” value in data set [2] was “decreases”.
